In patent US5594024A, “Centrally actig substituted phenylazacycloalkanes” (priority 1995, dated 1997):
Where two headings read alike, the source gives them in different places.

Assays:
D3 = conditions: Sokoloff, et al., Nature, 347 146-51 (1990); series of classical and atypical neuroleptics; cited from earlier work
[1] = comparison values, source not given; cited from earlier work
non-pretreated rats [2] = conditions: Johansson et al.; cited from earlier work
DA receptor [3] = conditions: after NSD1015; Johansson et al.; cited from earlier work
[4] = tested on: d-amphetamine-induced hyperactivity; assay: d-Amphetamine-induced hyperactivity in habituated rats; assay type: in vivo, rat; conditions: test compound 14 mg/kg, sc; d-amphetamine 5 mg/kg
DA receptor [5] = conditions: no NSD1015 treatment; Johansson et al.; cited from earlier work
dopamine autoreceptors = assay: GBL-model (DA synthesis rate; presynaptic dopamine autoreceptors); assay type: in vivo, rat; conditions: apomorphine […], sc; GBL 750 mg/kg, i.p.
Text: The effects on DOPA accumulation in the GBL-model is considered to reflect an event at the presynaptic dopamine autoreceptors (for further details, see Svensson et al., Nunyn-Schmiedeberg's Arch. Pharm., 334, 234(1986)).

in vivo = assay: in vivo; parameters: species or system rat (male Sprague-Dawley); conditions: rat
Protocol: This is in contrast to the actions of the preferential dopamine autoreceptor antagonists (+)-AJ76 and (+)-UH232 5. The blood levels of (±)-34 were measured after oral (40 μmol/kg) and iv (5 μmol/kg) administration of the drug to male Sprague-Dawley rats (250-300 g) that were cannulated with catheters in the jugular vein and the arteria carotis. The levels of (±)-34 were measured in whole blood by means of GC-MS. […] The oral availability is considerably better than the values obtained for (+)-UH232 and (+)-AJ76 (approximately 6 and 3%, respectively).

[6] = tested on: central dopamine receptors; conditions: Hacksell et al., J. Med. Chem., 24, 1475 (1981); cited from earlier work
5-HT receptor = assay: 5-HTP accumulation (5-HT synthesis rate) in non-pretreated rats after NSD 1015; assay type: in vivo, rat (male Sprague-Dawley)
Protocol: observations are commented to the right. After the session the rats were
accumulation in the NErich cortical regions and 5HTP in the limbic
(§1) Injection volumes were 5 mL/kg.

DA receptor [7] = assay: DA metabolism (DOPAC, HVA levels) in habituated rats; assay type: in vivo, rat (male Sprague-Dawley); conditions: for response vs control in vivo at 100 µmol/kg: Rattus norvegicus, sc, 1 h
Protocol: (§2) Footnotes Table 3. The rats were habituated to the motility meters 60 min
The rats were immediately killed after the activity session, striata
and limbic levels of DOPAC and 5HIAA were measured by means of HPLCEC. *p
In the experiments with habituated rats no NSD was administered and the animals were killed one hour after drug administration. […] The levels were expressed as % of controls (DOPAC and 5-HIAA see Table 3). The in vivo brain microdialysis experiments were performed in conscious rats as described by Waters et al., Eur. J. Pharm., 187, 425-34 (1990).
as §1
After the activity session the rats were killed and the brain levels of HVA and DOPAC were measured (data are expressed as means ±SEM).

DA receptor [8] = assay: DOPA accumulation (DA synthesis rate) in non-pretreated rats after NSD 1015
Protocol: injected with NSD 1015 (100 mg/kg, i.p.) and then killed 30 min later.
In-vivo determination of rat brain monoamine metabolites and tyrosine and tryptophan hydroxylation (biochemically monitored DA and 5-HT receptor agonist or antagonist activity).
The compounds under evaluation were tested biochemically for central DA and 5-HT receptor (pre- and/or postsynaptic) stimulating and/or blocking activity. The concept of this biochemical screening method is that a DA or 5-HT receptor agonist will stimulate the receptor and through regulatory negative feed-back systems induce a decline in tyrosine or tryptophan hydroxylating activity, respectively, and a subsequent reduction in the synthesis rate of DA and 5-HT in the presynaptic neuron. […] The biochemical experiments and the determinations of Dopa and 5-HTP by means of HPLC with electrochemical detection were performed. The antagonistic effects were seen as increases in the synthesis rate (n=4), as a result of the positive feed-back upregulation of synthesis. The effects on Dopa and 5-HTP accumulation are expressed as % of controls, which were: DOPA limbic system=447±23 ng/g and DOPA striatum=1045±47ng/g, 5-HTP limbic region 241±2 ng/g (Table 2).
(§3) Animals used in the biochemical and motor activity experiments were male rats of the Sprague-Dawley strain (ALAB, Sollentuna, Sweden), weighing 200-300 g. The rats were kept 5 per cage with free access to water and food (except for the starved animals for the experiments with per oral administration, who were only allowed water the last 18 hours before testing), at least one week from arrival until used in the experiments.
(§4) All substances to be tested were dissolved in saline immediately before use, occasionally with the addition of a few drops of glacial acetic acid and/or moderate heating in order to obtain complete dissolution. Injection volumes were 5 mL/kg.
Analysis of variance (ANOVA) followed by Fischer's test was used for the statistical calculations. P values less than 0.05 were regarded statistically significant.
DOPA accumulation (DA synthesis rate) in non-pretreated rats (Table 2). After the locomotor activity session (see Table 2, above) the rats were injected with the decarboxylase inhibitor NSD 1015 (100 mg/kg, sc) and killed 30 minutes later. The DOPA accumulation in the DA -rich limbic and striatal and the NE-rich cortical (mainly hemispheres) brain areas were expressed as % of saline treated controls.
DOPA accumulation, time course after s.c. and p.o. administration (Table 2). […] NSD 1015 (100 mg/kg, sc) was injected 30 minutes before death. The data are expressed as % of saline treated controls.

5-HT1A = molecular target: T1, 5-HT1A (Rattus norvegicus, UniProt P19327); assay: 5-HT1A radioligand binding ([3H]-8-OH-DPAT); parameters: species or system rat (male Sprague-Dawley); conditions: [3H]-8-OH-DPAT, rat cortex; read-out: in vitro binding IC50, 5HT1A
T1 construct: the whole brain with the exception of the brainstem and cerebellum was rapidly removed; from tissue
T1 sequence (P19327 1-422): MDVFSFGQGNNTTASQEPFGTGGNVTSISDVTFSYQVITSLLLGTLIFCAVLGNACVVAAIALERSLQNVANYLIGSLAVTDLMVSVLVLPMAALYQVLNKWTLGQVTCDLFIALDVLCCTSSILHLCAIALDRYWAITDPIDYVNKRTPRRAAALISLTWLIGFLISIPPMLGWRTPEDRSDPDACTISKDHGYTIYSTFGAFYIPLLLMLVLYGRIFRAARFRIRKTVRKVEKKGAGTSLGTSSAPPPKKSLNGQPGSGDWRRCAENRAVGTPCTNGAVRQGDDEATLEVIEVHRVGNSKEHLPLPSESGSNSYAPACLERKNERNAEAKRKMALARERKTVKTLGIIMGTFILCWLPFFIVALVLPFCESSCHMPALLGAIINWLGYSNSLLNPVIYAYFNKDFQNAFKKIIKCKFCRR
Protocol: ^b Serotonin 5HT1A ([^3 H]-8OH-DPAT, agonist) rat cortex.
5-HT1A radioligand binding. Male Sprague-Dawley rats (160-225 g) were killed by decapitation and the whole brain with the exception of the brainstem and cerebellum was rapidly removed, weighed and chilled in ice-cold 0.9% NaCl. Each brain was homogenized (Ultra-Turrax, 20 s) in 10 mL ice-cold 50 mM Tris buffer (pH 8.0 at 25° C.) containing 120 mM NaCl, 4 mM CaCl2 and 4 mM MgCl2 and centrifuged at 20,000 g's at 4° C. for 10 minutes. Pellets were resuspended in 10 mL fresh buffer and preincubated for 10 minutes in a 37° C. waterbath and then recentrifuged. Final pellets were homogenized in 100 volumes (w/v) of Tris buffer (as described above) containing 10 μM pargyline. The incubation tubes were kept on ice in triplicates and received 100 μL drug solution in water (or water for total binding) and 1000 μL membrane suspension (corresponds to 10 mg original tissue). The binding experiment was initiated by addition of 100 μL of (3H)-8-OH-DPAT (specific activity 143-158 Ci/mmol) in ascorbic acid (the final incubation concentration was 1 nM (3H)-8-OH-DPAT in 0.1% ascorbic acid). After incubation for 15 minutes at 37° C. the reaction was terminated by separation of the free radioligand from bound by rapid vacuum filtration using a cell harvester equipment (O. M. Teknik, Denmark). The tubes were rinsed with 4 mL and the filters (Whatman GF/F 25 mm) were washed twice with 4 mL ice-cold 0.9% NaCl.
The radioactivity of the filters was measured in a liquid scintillation counter (efficiency 41%) in 5 mL Picofluor®. Specific binding (70-75% of total binding) was defined as the radioactivity displaced by 10 μM 5-HT. IC50 values were calculated by semi-log plot and linear regression analysis.

D2 receptors = molecular target: T2, D2 receptors (Rattus norvegicus, UniProt P61169); assay: D2 antagonist binding ([3H]-spiperone), rat striatum
T2 construct: Preparation of rat striatal membranes for (3H)-spiperone; from tissue; host or cells: rat striatum (striatal membranes)
T2 sequence (P61169 whole entry): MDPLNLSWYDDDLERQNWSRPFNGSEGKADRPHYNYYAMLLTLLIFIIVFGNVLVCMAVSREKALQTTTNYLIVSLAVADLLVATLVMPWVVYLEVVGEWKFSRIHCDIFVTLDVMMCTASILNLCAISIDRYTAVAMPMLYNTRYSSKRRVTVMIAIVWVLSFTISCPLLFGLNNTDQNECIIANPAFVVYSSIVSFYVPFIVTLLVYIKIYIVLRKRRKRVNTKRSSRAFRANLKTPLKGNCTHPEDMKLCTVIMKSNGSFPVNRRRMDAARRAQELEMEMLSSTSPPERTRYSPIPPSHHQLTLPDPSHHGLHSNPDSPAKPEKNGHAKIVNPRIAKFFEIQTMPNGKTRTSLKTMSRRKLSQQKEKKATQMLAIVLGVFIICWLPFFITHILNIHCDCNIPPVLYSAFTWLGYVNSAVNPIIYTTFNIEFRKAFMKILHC
Protocol: D2 antagonist binding. Preparation of rat striatal membranes for (3H)-spiperone (specific activity 21-24 Ci/mmol) binding was carried out in a similar manner as described for D1-binding, Hyttel et al., J. Neural. Transm., 68, 171 (1987).
IC50 values were calculated by semi-log plot and linear regression analysis.

[9] = tested on: central dopamine receptors; assay: Locomotor activity and DA synthesis in reserpinized rats; assay type: in vivo, rat
habituated rats = assay: Locomotor activity and behavior in habituated rats; assay type: in vivo, rat (male Sprague-Dawley); conditions: habituated rats
Protocol: as §2
prior to the activity session.
as §1
Locomotor activity was measured in rats which were habituated 60 minutes to the activity meters before drug injection. The activity was measured for the subsequent 60 minutes and expressed as % of controls (means ±SEM, n=4).

non-pretreated rats [10] = assay: Locomotor activity and gross behavior in non-habituated (non-pretreated) rats; conditions: non-pretreated rats
Text: Immediately after drug administration, the rats were placed in the test cages (one rat/cage) and put into the motility meters. […] Observations of gross behavior were made throughout the activity sessions through semi-transparent mirrors.
as §3, §4
Analysis of variance (ANOVA) followed by Fischer's test was used for the statistical calculations.
In vivo behavioral data was obtained with rats injected with drug and 5 minutes later put into the motility chambers for the first time. The motor activity was measured for the subsequent 30 minutes (accumulated counts/30 minutes) and expressed as % of saline treated controls.

CCCN[C@@H]1CCc2c(OC)cccc2[C@@H]1C [(+)-AJ76, (+)-cis-1S,2R-5-methoxy-1-methyl-2-(N-n-propylamino)tetralin]
preference for the D3 site (D3): highest preference for the D3 site
oral availability [1]: approximately 3%
locomotor activity (photocell motility meters) (non-pretreated rats [2]): increase the locomotor activity
Dopa accumulation in normal animals (DA receptor [3]): raise the Dopa accumulation
effect on activation induced by high dose d-amphetamine [4]: clearly blocked the stimulation
levels of the DA metabolites DOPAC and HVA (DA receptor [5]): raise the levels of the DA metabolites DOPAC and HVA

CN1CCc2cccc3c2[C@H]1Cc1ccc(O)c(O)c1-3 [apomorphine, reference compound]
effect on GBL-elevated limbic and striatal DA synthesis rate (dopamine autoreceptors): completely reversed

CCCN(CCC)[C@@H]1CCc2c(OC)cccc2[C@@H]1C [(+)-UH232, (+)-cis-1S,2R-5-methoxy-1-methyl-2-(N,N-di-n-propylamino)tetralin]
preference for the D3 site (D3): highest preference for the D3 site
oral availability [1]: approximately 6%
locomotor activity (photocell motility meters) (non-pretreated rats [2]): increase the locomotor activity
Dopa accumulation in normal animals (DA receptor [3]): raise the Dopa accumulation
levels of the DA metabolites DOPAC and HVA (DA receptor [5]): raise the levels of the DA metabolites DOPAC and HVA

CCCN1CCCC(c2cccc(C#N)c2)C1 (racemic) [(±)-34, 3-(3-cyanophenyl-N-n-propyl)piperidine]
half-life (in vivo; iv): ~3 h
bioavailability (in vivo; po, oral bioavailability): ~78%
direct receptor agonistic effects in reserpinized rats [6]: no direct receptor agonistic effects

CCCN1CCC[C@H](c2cccc(C#N)c2)C1 [R-(+)-34, R-(+)-3-(3-Cyanophenyl-N-n-propyl)piperidine]
5-HTP acc Limbic Region (5-HT receptor; 50 po): 99 ± 3 % of saline controls
5-HTP acc Limbic Region (5-HT receptor; 50 sc): 82 ± 1 % of saline controls
response vs control in vivo at 100 µmol/kg (DA receptor [7]; read-out: DOPAC limbic): 120 ± 5%
response vs control in vivo at 100 µmol/kg (DA receptor [7]; read-out: DOPAC striatum): 117 ± 3%
limbic DOPAC levels (in words) (DA receptor [7]; rat, in vivo): only weakly elevated limbic DOPAC
DOPA acc Cortex (DA receptor [8]; 50 po): 103 ± 9 % of saline controls
DOPA acc Stratium (DA receptor [8]; 50 po): 172 ± 8 % of saline controls
DOPA acc Cortex (DA receptor [8]; 50 sc): 145 ± 11 % of saline controls
DOPA acc Stratium (DA receptor [8]; 50 sc): 281 ± 11 % of saline controls
IC50 (5-HT1A): 14 µM
affinity for D2 receptors (in words) (D2 receptors; (3H)-Spiperone binding): essentially no affinity for D2 receptors
IC50 (D2 receptors; read-out: in vitro binding IC50, D2 -spip, [3H]-spiperone, rat striatum): 100 µM
motor activity in reserpinized rats ([9]; 50 μmol/kg, sc, reserpine 5 mg/kg, 18 h before): 6±2 counts/30 min
DA synthesis rate / DOPA accumulation in reserpinized rats (in words) ([9]; reserpinized rats): failed to produce locomotor stimulation or to affect the DA synthesis rate in reserpinized rats
locomotor stimulation in reserpinized rats (in words) ([9]; reserpinized rats): failed to activate the reserpinized rats
locomotor stimulation in reserpinized rats (in words) ([9]; reserpinized rats, listed as (R)-34): failed to produce locomotor stimulation
Behavioral observations (habituated rats; 100 μmol/kg sc): Activation
locomotor activity in habituated rats (in words) (habituated rats): stimulates the locomotor activity in habituated rats
Gross Behavioral Observations (non-pretreated rats [10]; 50 po): No change
Motor Act. (non-pretreated rats [10]; 50 po, 30 min): 133 ± 14 % of saline controls
Gross Behavioral Observations (non-pretreated rats [10]; 50 sc): stimulat.
